From patent US20240158418A1 (C4 Therapeutics, Inc., priority 2021, published 2024)
Like-named read-outs stand apart in the source and are kept apart here.

Biological target: T1, EGFR L858R-T790M (Homo sapiens, UniProt P00533, L858R/T790M)
T1 construct: NCI-H1975 (harboring EGFR heterozygous L858R-T790M mutations); host or cells: NCI-H1975
Assay: EGFR degradation, Total EGFR (L858R-specific) HTRF, NCI-H1975
Assay type: cell-based
Settings: NCI-H1975 cells, 6 hours, Total EGFR HTRF, read-out: H1975 EGFR DC50
Method in brief: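 HTRF read-outs: pY1068 phospho-EGFR for IC50; total EGFR (pan-EGFR in A431, L858R-specific in mutant lines) for DC50. Compounds were titrated 11 points, half-log, from 10 μM in duplicate onto cells in 10% FBS RPMI, incubated 6 h at 37°C.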

T1 sequence (P00533 25-1210 T790M/L858R): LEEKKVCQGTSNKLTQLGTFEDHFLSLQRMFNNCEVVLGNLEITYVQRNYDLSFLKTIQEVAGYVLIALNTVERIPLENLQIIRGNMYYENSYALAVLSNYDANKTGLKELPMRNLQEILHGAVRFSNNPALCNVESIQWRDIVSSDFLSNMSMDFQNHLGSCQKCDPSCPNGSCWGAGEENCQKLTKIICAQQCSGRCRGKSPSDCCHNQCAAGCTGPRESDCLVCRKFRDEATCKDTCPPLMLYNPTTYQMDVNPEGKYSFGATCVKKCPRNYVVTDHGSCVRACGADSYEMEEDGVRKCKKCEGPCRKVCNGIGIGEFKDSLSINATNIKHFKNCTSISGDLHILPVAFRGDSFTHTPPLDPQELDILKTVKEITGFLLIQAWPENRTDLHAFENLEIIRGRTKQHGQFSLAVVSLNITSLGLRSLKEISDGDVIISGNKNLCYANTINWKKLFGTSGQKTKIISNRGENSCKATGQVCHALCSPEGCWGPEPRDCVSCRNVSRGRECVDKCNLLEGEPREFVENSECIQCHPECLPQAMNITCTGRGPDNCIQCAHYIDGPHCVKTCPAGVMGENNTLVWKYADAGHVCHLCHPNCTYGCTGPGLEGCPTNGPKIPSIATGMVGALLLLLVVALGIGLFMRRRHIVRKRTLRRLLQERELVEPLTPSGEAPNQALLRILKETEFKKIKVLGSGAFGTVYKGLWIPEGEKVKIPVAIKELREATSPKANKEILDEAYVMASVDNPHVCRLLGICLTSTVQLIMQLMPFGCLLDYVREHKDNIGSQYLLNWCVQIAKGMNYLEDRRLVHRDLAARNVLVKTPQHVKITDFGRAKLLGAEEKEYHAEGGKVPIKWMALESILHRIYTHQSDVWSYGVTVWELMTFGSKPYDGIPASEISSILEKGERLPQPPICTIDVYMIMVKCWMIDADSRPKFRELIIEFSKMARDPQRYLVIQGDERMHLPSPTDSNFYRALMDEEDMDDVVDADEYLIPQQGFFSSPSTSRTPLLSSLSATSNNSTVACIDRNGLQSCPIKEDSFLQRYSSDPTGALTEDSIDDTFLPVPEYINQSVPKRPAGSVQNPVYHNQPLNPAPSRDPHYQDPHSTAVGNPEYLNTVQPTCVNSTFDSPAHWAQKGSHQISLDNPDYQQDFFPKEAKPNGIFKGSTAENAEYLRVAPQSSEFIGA

Compound	DC50 (Table 9A) [nM]	DC50 (Table 9B) [nM]
O=C1CCC(Nc2ccc(C3CCN(CC(=O)N4CCN(c5ccc(-c6ccc7cn(C(C(=O)Nc8nccs8)c8ncn9c8CCC9)nc7c6F)cn5)CC4)CC3)cc2)C(=O)N1 (racemic) [Compound 63, (2RS)-2-(6,7-Dihydro-5H-pyrrolo[1,2-c]imidazol-1-yl)-2-[7-fluoro-6-[6-[4-[2-[4-[4-[[(3RS)-2,6-dioxo-3-piperidyl]amino]phenyl]-1-piperidyl]acetyl]piperazin-1-yl]-3-pyridyl]indazol-2-yl]-N-thiazol-2-yl-acetamide]	50 to 150	
O=C1CCC(Nc2cc(F)c(N3CCC(O)(CC(=O)N4CC5(C4)CN(c4ccc(-c6cc(F)c7c(c6)C(=O)N(C(C(=O)Nc6nccs6)c6ncn8c6CCC8)C7)cc4)C5)CC3)cc2F)C(=O)N1 (stereo not drawn) [Compound 135, 2-(6,7-dihydro-5H-pyrrolo[1,2-c]imidazol-1-yl)-2-[6-[4-[2-[2-[1-[4-[(2,6-dioxo-3-piperidyl)amino]-2,5-difluoro-phenyl]-4-hydroxy-4-piperidyl]acetyl]-2,6-diazaspiro[3.3]heptan-6-yl]phenyl]-4-fluoro-1-oxo-isoindolin-2-yl]-N-thiazol-2-yl-acetamide]		< 50
O=C1CCC(Nc2cc(F)c(N3CCC(O)(CC(=O)N4CC5(CCN(c6ccc(-c7cc(F)c8c(c7)C(=O)N(C(C(=O)Nc7nccs7)c7ncn9c7CCC9)C8)cc6)CC5)C4)CC3)c(F)c2)C(=O)N1 (single isomer, unassigned; isomer 1) [Compound 134, 2-(6,7-dihydro-5H-pyrrolo[1,2-c]imidazol-1-yl)-2-[6-[4-[2-[2-[1-[4-[[2,6-dioxo-3-piperidyl]amino]-2,6-difluoro-phenyl]-4-hydroxy-4-piperidyl]acetyl]-2,7-diazaspiro[3.5]nonan-7-yl]phenyl]-4-fluoro-1-oxo-isoindolin-2-yl]-N-thiazol-2-yl-acetamide, isomer 1]		< 50
O=C1CCN(c2ccc(N3CCC(O)(CC(=O)N4CCC5(CC4)CN(c4ccc(-c6cc(F)c7c(c6)C(=O)N(C(C(=O)Nc6nccs6)c6ncn8c6CCC8)C7)cc4)C5)CC3)c(Cl)c2)C(=O)N1 (stereo not drawn) [Compound 170, 2-[6-[4-[7-[2-[1-[2-chloro-4-(2,4-dioxohexahydropyrimidin-1-yl)phenyl]-4-hydroxy-4-piperidyl]acetyl]-2,7-diazaspiro[3.5]nonan-2-yl]phenyl]-4-fluoro-1-oxo-isoindolin-2-yl]-2-(6,7-dihydro-5H-pyrrolo[1,2-c]imidazol-1-yl)-N-thiazol-2-yl-acetamide]		< 50
O=C1CC[C@H](Nc2ccc(N3CCC(O)(C(=O)N4CC5(C4)CN(c4ccc(-c6cc(F)c7c(c6)C(=O)N(C(C(=O)Nc6nccs6)c6ncn8c6CCC8)C7)cc4)C5)CC3)c(F)c2)C(=O)N1 (single isomer, unassigned; isomer 1) [Compound 146, 2-(6,7-dihydro-5H-pyrrolo[1,2-c]imidazol-1-yl)-2-[6-[4-[2-[1-[4-[[2,6-dioxo-3-piperidyl]amino]-2-fluoro-phenyl]-4-hydroxy-piperidine-4-carbonyl]-2,6-diazaspiro[3.3]heptan-6-yl]phenyl]-4-fluoro-1-oxo-isoindolin-2-yl]-N-thiazol-2-yl-acetamide, isomer 1]		< 50
O=C1CC[C@@H](Nc2ccc(N3CCC(O)(CC(=O)N4CC5(C4)CN(c4ccc(-c6cc(F)c7c(c6)C(=O)N(C(C(=O)Nc6nccs6)c6ncn8c6CCC8)C7)cn4)C5)CC3)c(F)c2)C(=O)N1 (stereo partly drawn) [Compound 111, 2-(6,7-dihydro-5H-pyrrolo[1,2-c]imidazol-1-yl)-2-(6-(6-(6-(2-(1-(4-(((R)-2,6-dioxopiperidin-3-yl)amino)-2-fluorophenyl)-4-hydroxypiperidin-4-yl)acetyl)-2,6-diazaspiro[3.3]heptan-2-yl)pyridin-3-yl)-4-fluoro-1-oxoisoindolin-2-yl)-N-(thiazol-2-yl)acetamide]		< 50
